From article PMC12297698 (Scientific Reports, 2025)

Molecular target: T1, Caspase-3 (Recombinant human Caspase-3 protein (Active)) (Homo sapiens, UniProt P42574)
T1 sequence (P42574 29-175): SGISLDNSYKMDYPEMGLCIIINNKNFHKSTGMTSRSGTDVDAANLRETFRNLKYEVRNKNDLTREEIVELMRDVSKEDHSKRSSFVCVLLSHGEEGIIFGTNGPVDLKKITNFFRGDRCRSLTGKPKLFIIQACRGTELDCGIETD
T1 sequence (P42574 176-277): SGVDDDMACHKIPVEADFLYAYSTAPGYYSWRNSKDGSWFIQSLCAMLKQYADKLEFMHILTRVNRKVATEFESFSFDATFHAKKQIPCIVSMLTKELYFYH
Test: SPR, Biacore T200, CM5 chip, immobilised caspase-3
Assay type: binding

Kd: 76.7 µM
Structure (SMILES): OC[C@H]1O[C@@H](OCCc2ccc(O)cc2)[C@H](O)[C@@H](O)[C@@H]1O [Salidroside]
